Measurements taken from PubChem BioAssay AID248 (DTP/NCI, 2004).
Several values for one entry are separate records, joined by “and”; a condition that tells them apart may be missing. Equal entries are not always repeated. Toxic doses and inconclusive results are not listed. Square brackets hold non-standard residues; d marks the D form. Peptide text beside a SMILES is read from it. * marks the point of attachment. ξ: configuration not given here. Cbz = O=C(OCc1ccccc1)*; ξT = CC(O)C(N)C(=O)O

Test system: L1210 leukemia ip in BDF1 mice, survival T/C
Experiment: NCI In Vivo Anticancer Drug Screen. Data for tumor model L1210 Leukemia (intraperitoneal) in B6D2F1 (BDF1) mice
Conditions: endpoint: mean survival time, higher = longer survival
Method in brief: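 Read-out is survival time, reported as the treated-group measurement over the vehicle-control measurement.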

[1] = dose: 75.0 mg/kg/injection, schedule: Q01DX001 (ip), vehicle: acetone
[2] = dose: 100.0 mg/kg/injection, schedule: Q01DX001 (ip), vehicle: carboxymethylcellulose (CMC)
[3] = dose: 200.0 mg/kg/injection, schedule: Q01DX001 (ip), vehicle: carboxymethylcellulose (CMC)
[4] = dose: 400.0 mg/kg/injection, schedule: Q01DX001 (ip), vehicle: carboxymethylcellulose (CMC)
[5] = dose: 100.0 mg/kg/injection, schedule: Q01DX009 (ip), vehicle: saline with Tween-80
[6] = dose: 100.0 mg/kg/injection, schedule: Q04DX003 (ip), vehicle: saline with Tween-80
[7] = dose: 200.0 mg/kg/injection, schedule: Q01DX009 (ip), vehicle: saline with Tween-80
[8] = dose: 200.0 mg/kg/injection, schedule: Q04DX003 (ip), vehicle: saline with Tween-80
[9] = dose: 400.0 mg/kg/injection, schedule: Q01DX009 (ip), vehicle: saline with Tween-80
[10] = dose: 400.0 mg/kg/injection, schedule: Q04DX003 (ip), vehicle: saline with Tween-80
[11] = dose: 100.0 mg/kg/injection, schedule: Q01DX009 (ip), vehicle: Klucel (hydroxypropylcellulose) (HPC)
[12] = dose: 200.0 mg/kg/injection, schedule: Q01DX009 (ip), vehicle: Klucel (hydroxypropylcellulose) (HPC)
[13] = dose: 400.0 mg/kg/injection, schedule: Q01DX009 (ip), vehicle: Klucel (hydroxypropylcellulose) (HPC)
[14] = dose: 100.0 mg/kg/injection, schedule: Q01DX001 (ip), vehicle: saline
[15] = dose: 200.0 mg/kg/injection, schedule: Q01DX001 (ip), vehicle: saline
[16] = dose: 400.0 mg/kg/injection, schedule: Q01DX001 (ip), vehicle: saline
[17] = dose: 100.0 mg/kg/injection, schedule: Q01DX001 (ip), vehicle: Klucel (hydroxypropylcellulose) (HPC)
[18] = dose: 200.0 mg/kg/injection, schedule: Q01DX001 (ip), vehicle: Klucel (hydroxypropylcellulose) (HPC)

Structure (SMILES): [Cu+2].[O-]c1ccc(Br)c2cccnc12.[O-]c1ccc(Br)c2cccnc12
- T/C (dose: 25.0 mg/kg/injection, schedule: Q01DX001 (ip), vehicle: carboxymethylcellulose (CMC)): 103 % of control
- T/C (dose: 50.0 mg/kg/injection, schedule: Q01DX001 (ip), vehicle: carboxymethylcellulose (CMC)): 105 % of control

Structure (SMILES): CC(=O)OCC1CC2CC(O)C1C2 (stereo not drawn)
- T/C [1]: 102 % of control

Structure (SMILES): Nc1c(Br)c(Cl)cc2c1-c1ccc(Cl)cc1C2S (stereo not drawn)
- T/C [2]: 104 % of control
- T/C [3]: 95 % of control
- T/C [4]: 90 % of control

Structure (SMILES): Cc1ccc(C#N)cc1
- T/C [5]: 98 % of control
- T/C [6]: 94 % of control
- T/C [7]: 93 % of control
- T/C [8]: 92 % of control
- T/C [9]: 98 % of control
- T/C [10]: 96 % of control

Structure (SMILES): COc1ccc(C)cc1NC(=O)C1CC1
- T/C [11]: 103 % of control
- T/C [12]: 113 % of control
- T/C [13]: 104 % of control

Structure (SMILES): O=C1C=CC(=O)N1Cc1ccc[n+](CCC[n+]2cccc(CN3C(=O)C=CC3=O)c2)c1
- T/C [2]: 98 % of control
- T/C [3]: 91 % of control
- T/C [4]: 96 % of control

Structure (SMILES): O=C1COc2cc(O)c(O)cc21
- T/C [14]: 104 % of control
- T/C [15]: 103 % of control
- T/C [16]: 104 % of control

Structure (SMILES): NC(=S)N/N=C/c1cnccn1
- T/C (dose: 13.0 mg/kg/injection, schedule: Q03HX032 (ip), vehicle: saline with Tween-80): 98 % of control
- T/C (dose: 20.0 mg/kg/injection, schedule: Q03HX032 (ip), vehicle: saline with Tween-80): 101 % of control
- T/C (dose: 29.0 mg/kg/injection, schedule: Q03HX032 (ip), vehicle: saline with Tween-80): 113 % of control
- T/C (dose: 44.0 mg/kg/injection, schedule: Q03HX032 (ip), vehicle: saline with Tween-80): 115 % of control
- T/C [7]: 86 % of control

Structure (SMILES): CCCC(=O)OCC1OC(n2ccc(N)nc2=O)C(O)C1OC(=O)CCC (stereo not drawn)
- T/C (dose: 60.0 mg/kg/injection, schedule: Q01DX005 (ip), vehicle: Klucel (hydroxypropylcellulose) (HPC)): 183 % of control
- T/C (dose: 90.0 mg/kg/injection, schedule: Q01DX005 (ip), vehicle: Klucel (hydroxypropylcellulose) (HPC)): 152 % of control
- T/C (dose: 134.0 mg/kg/injection, schedule: Q01DX005 (ip), vehicle: Klucel (hydroxypropylcellulose) (HPC)): 158 % of control
- T/C (dose: 200.0 mg/kg/injection, schedule: Q01DX005 (ip), vehicle: Klucel (hydroxypropylcellulose) (HPC)): 162 % of control and 170 % of control

Structure (SMILES): CC1=CC2CCC1C2 (stereo not drawn)
- T/C [1]: 101 % of control
- T/C (dose: 150.0 mg/kg/injection, schedule: Q01DX001 (ip), vehicle: acetone): 95 % of control

Structure (SMILES): COC1OC(COS(=O)OC)C(O)C(O)C1OS(=O)OC (stereo not drawn)
- T/C [2]: 100 % of control
- T/C [3]: 97 % of control
- T/C [4]: 94 % of control

Structure (SMILES): Nc1nc2nc(CC(=O)C(=O)O)c(=O)[nH]c2c(=O)[nH]1
- T/C (dose: 3.12 mg/kg/injection, schedule: Q01DX009 (ip), vehicle: saline with Tween-80): 97 % of control
- T/C (dose: 6.25 mg/kg/injection, schedule: Q01DX009 (ip), vehicle: saline with Tween-80): 101 % of control
- T/C (dose: 12.5 mg/kg/injection, schedule: Q01DX009 (ip), vehicle: saline with Tween-80): 103 % of control
- T/C (dose: 12.5 mg/kg/injection, schedule: Q04DX003 (ip), vehicle: saline): 105 % of control
- T/C (dose: 25.0 mg/kg/injection, schedule: Q04DX003 (ip), vehicle: saline): 111 % of control
- T/C (dose: 50.0 mg/kg/injection, schedule: Q01DX009 (ip), vehicle: saline): 97 % of control
- T/C (dose: 50.0 mg/kg/injection, schedule: Q04DX003 (ip), vehicle: saline): 104 % of control
- T/C (dose: 100.0 mg/kg/injection, schedule: Q04DX003 (ip), vehicle: saline): 106 % of control

Structure (SMILES): C#C/C=C/CC1OC(C(Br)CC)CC(Br)C2CC1O2 (stereo not drawn)
- T/C (dose: 75.0 mg/kg/injection, schedule: Q01DX001 (ip), vehicle: carboxymethylcellulose (CMC)): 92 % of control
- T/C (dose: 150.0 mg/kg/injection, schedule: Q01DX001 (ip), vehicle: carboxymethylcellulose (CMC)): 96 % of control
- T/C (dose: 300.0 mg/kg/injection, schedule: Q01DX001 (ip), vehicle: carboxymethylcellulose (CMC)): 96 % of control

Structure (SMILES): O=[N+]([O-])c1cc(Br)cnc1Br
- T/C [17]: 100 % of control
- T/C [11]: 101 % of control
- T/C [18]: 105 % of control
- T/C [12]: 96 % of control
- T/C (dose: 400.0 mg/kg/injection, schedule: Q01DX001 (ip), vehicle: Klucel (hydroxypropylcellulose) (HPC)): 105 % of control
- T/C [13]: 103 % of control

Structure (SMILES): COC1OC(CI)C(OS(C)(=O)=O)C(OC(=O)c2ccccc2)C1OC(=O)c1ccccc1 (stereo not drawn)
- T/C (dose: 100.0 mg/kg/injection, schedule: Q04DX002 (ip), vehicle: Klucel (hydroxypropylcellulose) (HPC)): 91 % of control
- T/C (dose: 200.0 mg/kg/injection, schedule: Q04DX002 (ip), vehicle: Klucel (hydroxypropylcellulose) (HPC)): 97 % of control

Structure (SMILES): CO/N=C1\C(C)(C)C(C)(C)C(C)(C)C1(C)SS(=O)(=O)O (stereo not drawn)
- T/C (dose: 100.0 mg/kg/injection, schedule: Q04DX002 (ip), vehicle: saline): 90 % of control
- T/C (dose: 200.0 mg/kg/injection, schedule: Q04DX002 (ip), vehicle: saline): 101 % of control
- T/C (dose: 400.0 mg/kg/injection, schedule: Q04DX002 (ip), vehicle: saline): 107 % of control

Structure (SMILES): c1coc(CNc2cc(NCc3ccco3)ncn2)c1
- T/C [11]: 98 % of control
- T/C [12]: 95 % of control

Structure (SMILES): CC(C(O)c1ccc2cc(Br)c3ccccc3c2c1)N(C)C (stereo not drawn)
- T/C (dose: 55.0 mg/kg/injection, schedule: Q01DX Z (ip), vehicle: methylcellulose (MC)): 101 % of control
- T/C (dose: 83.0 mg/kg/injection, schedule: Q01DX Z (ip), vehicle: methylcellulose (MC)): 101 % of control
- T/C (dose: 125.0 mg/kg/injection, schedule: Q01DX Z (ip), vehicle: methylcellulose (MC)): 101 % of control

Structure (SMILES): CC(CNC1CCCCC1)OC(=O)c1ccc(N)cc1 (stereo not drawn)
- T/C (dose: 75.0 mg/kg/injection, schedule: Q01DX001 (ip), vehicle: saline): 100 % of control

Structure (SMILES): CNS(=O)(=O)c1ccc(NC(=O)C(Cl)Cl)cc1
- T/C (dose: 100.0 mg/kg/injection, schedule: Q01DX001 (ip), vehicle: other): 101 % of control
- T/C [5]: 95 % of control
- T/C (dose: 200.0 mg/kg/injection, schedule: Q01DX001 (ip), vehicle: other): 103 % of control
- T/C [7]: 106 % of control
- T/C (dose: 400.0 mg/kg/injection, schedule: Q01DX001 (ip), vehicle: other): 101 % of control
- T/C [9]: 102 % of control

Structure (SMILES): O=C1C2CCN(CC2)C1Cn1cnc2c(Cl)ncnc21 (stereo not drawn)
- T/C [17]: 95 % of control
- T/C [18]: 98 % of control

Structure (SMILES): O=C(COc1ccc(Cl)cc1Cl)OCCOCCOCCOCCOCCOCCOCCOCCOCCOCCOCCOCCOCCO
- T/C [11]: 101 % of control
- T/C [12]: 101 % of control
- T/C [13]: 98 % of control

Structure (SMILES): CCCC(C)C(C#N)c1ccccc1 (stereo not drawn)
- T/C (dose: 25.0 mg/kg/injection, schedule: Q01DX009 (ip), vehicle: Klucel (hydroxypropylcellulose) (HPC)): 101 % of control and 103 % of control
- T/C (dose: 25.0 mg/kg/injection, schedule: Q04DX003 (ip), vehicle: Klucel (hydroxypropylcellulose) (HPC)): 95 % of control
- T/C (dose: 50.0 mg/kg/injection, schedule: Q01DX009 (ip), vehicle: Klucel (hydroxypropylcellulose) (HPC)): 93 % of control and 98 % of control and 90 % of control
- T/C (dose: 50.0 mg/kg/injection, schedule: Q04DX003 (ip), vehicle: Klucel (hydroxypropylcellulose) (HPC)): 88 % of control
- T/C (dose: 100.0 mg/kg/injection, schedule: Q04DX003 (ip), vehicle: Klucel (hydroxypropylcellulose) (HPC)): 89 % of control

Structure (SMILES): Nc1ccc(S(=O)(=O)F)cc1N
- T/C (dose: 100.0 mg/kg/injection, schedule: Q01DX001 (ip), vehicle: acetone): 101 % of control
- T/C (dose: 100.0 mg/kg/injection, schedule: Q01DX009 (ip), vehicle: acetone): 96 % of control
- T/C (dose: 200.0 mg/kg/injection, schedule: Q01DX001 (ip), vehicle: acetone): 101 % of control
- T/C (dose: 200.0 mg/kg/injection, schedule: Q01DX009 (ip), vehicle: acetone): 93 % of control
- T/C (dose: 400.0 mg/kg/injection, schedule: Q01DX001 (ip), vehicle: acetone): 103 % of control

Structure (SMILES): Brc1ccc2[nH]c3c(c2c1)CCCC3
- T/C [14]: 87 % of control
- T/C [15]: 89 % of control
- T/C [16]: 98 % of control

Structure (SMILES): COC(=O)C(NC(=O)CNC(=O)OCc1ccccc1)C(C)O (stereo not drawn) (Cbz-Gly-[ξT]-OMe)
- T/C [6]: 98 % of control
- T/C [8]: 96 % of control
- T/C [10]: 93 % of control

Structure (SMILES): COC(=O)c1cn[nH]c1C(=O)OC
- T/C [14]: 100 % of control
- T/C [15]: 100 % of control
- T/C [16]: 96 % of control
